Test results published in patent publication US5464617A, “β-lactam compounds” (Hoffmann-La Roche Inc., priority 1994, dated 1995).
Where a name gives a salt, the structure may show the parent alone.

Experiments:
E. coli 1346 = assay: Antibacterial activity of the products per se, serial dilution method in liquid medium (Test E); assay type: cell-based; details: Table 4; test E, product per se
Text: The antibacterial activity of the products per se is illustrated on the basis of Table 3 hereinafter, the minimum inhibitory concentration […] in vitro against E. coli 1346 being determined using the serial dilution method in liquid medium: […]

[1] = tested on: Citrobacter freundii 1982; assay: MIC in vitro of a 1:4 combination of ceftriaxone with a compound of formula I (Test D); assay type: cell-based; details: Table 4; test D, 1:4 combination of ceftriaxone with the compound
Protocol: The minimum inhibitory concentration in vitro ([…]) of a 1:4 combination of ceftriaxone with a compound of formula I against Citrobacter freundii 1982 was measured and compiled in Table 2 hereinafter.

| Structure (SMILES) | MIC E. coli 1346 (E) (E. coli 1346) | MIC C. freundii 1982 (D) [1] |
| --- | --- | --- |
| CC(=O)N1C[C@H]2CC(CSc3nnnn3CC(=O)Nc3ccc(O)cc3)=C(C(=O)O)N3C(=O)[C@@H]1[C@@H]23 [78(a), (1aS,3aR,6bR)-2-Acetyl-5-[1-(4-hydroxy-phenylcarbamoylmethyl)-1H-tetrazol-5-ylsulphanylmethyl]-1-oxo-1a,2,3,3a,4,6b-hexahydro-1H-2,6a-diazacyclobut[cd]indene-6-carboxylic acid sodium salt] | 1 µg/mL | 0.5 µg/mL |
| O=C(Cn1nnnc1SCC1=C(C(=O)O)N2C(=O)[C@@H]3[C@H]2[C@H](C1)CN3C(=O)C(F)(F)F)Nc1ccc(O)cc1 [78(b), (1aS,3aR,6bR)-5-[1-(4-Hydroxy-phenylcarbamoylmethyl)-1H-tetrazol-5-ylsulphanylmethyl]-1-oxo-2-trifluoroacetyl-1a,2,3,3a,4,6b-hexahydro-1H-2,6a-diazacyclobut[cd]indene-6-carboxylic acid sodium salt] | 1 µg/mL | 1 µg/mL |
| CC(=O)N1C[C@H]2CC(CSc3nnnn3CC(=O)NCCc3ccccc3)=C(C(=O)O)N3C(=O)[C@@H]1[C@@H]23 [80(a), (1aS,3aR,6bR)-2-Acetyl-1-oxo-5-[1-(phenethylcarbamoylmethyl)-1H-tetrazol-5-ylsulphanylmethyl]-1a,2,3,3a,4,6b-hexahydro-1H-2,6a-diazacyclobut[cd]indene-6-carboxylic acid sodium salt] | 0.5 µg/mL | 4 µg/mL |
| CC(=O)N1C[C@H]2CC(CN=[N+]=[N-])=C(C(=O)O)N3C(=O)[C@@H]1[C@@H]23 [83(a), (1aS,3aR,6bR)-2-Acetyl-5-azidomethyl-1-oxo-1a,2,3,3a,4,6b-hexahydro-1H-2,6a-diazacyclobut[cd]indene-6-carboxylic acid sodium salt] | 2 µg/mL | 0.5 µg/mL |
| [N-]=[N+]=NCC1=C(C(=O)O)N2C(=O)[C@@H]3[C@H]2[C@H](C1)CN3C(=O)C(F)(F)F [83(b), (1aS,3aR,6bR)-5-Azidomethyl-2-trifluoroacetyl-1-oxo-1a,2,3,3a,4,6b-hexahydro-1H-2,6a-diazacyclobut[cd]indene-6-carboxylic acid sodium salt] | 0.5 µg/mL | 0.5 µg/mL |
| CC(=O)N1C[C@H]2CC(CNS(C)(=O)=O)=C(C(=O)O)N3C(=O)[C@@H]1[C@@H]23 [88(a), (1aS,3aR,6bR)-2-Acetyl-5-methylsulphonylaminomethyl-1-oxo-1a,2,3,3a,4,6b-hexahydro-1H-2,6a-diazacyclobut[cd]indene-6-carboxylic acid sodium salt] | 16 µg/mL | 4 µg/mL |
| CS(=O)(=O)NCC1=C(C(=O)O)N2C(=O)[C@@H]3[C@H]2[C@H](C1)CN3C(=O)C(F)(F)F [88(b), (1aS,3aR,6bR)-5-Methylsulphonylaminomethyl-1-oxo-2-trifluoroacetyl-1a,2,3,3a,4,6b-hexahydro-1H-2,6a-diazacyclobut[cd]indene-6-carboxylic acid sodium salt] | 4 µg/mL | 2 µg/mL |
| CC(=O)N1C[C@H]2CC(COC(=O)Nc3ccc(O)cc3)=C(C(=O)O)N3C(=O)[C@@H]1[C@@H]23 [90(a), (1aS,3aR,6bR)-2-Acetyl-5-(4-hydroxy-phenylcarbamoyloxymethyl)-1-oxo-1a,2,3,3a,4,6b-hexahydro-1H-2,6a-diazacyclobut[cd]indene-6-carboxylic acid sodium salt] | 0.5 µg/mL | 1 µg/mL |
| O=C(Nc1ccc(O)cc1)OCC1=C(C(=O)O)N2C(=O)[C@@H]3[C@H]2[C@H](C1)CN3C(=O)C(F)(F)F [90(b), (1aS,3aR,6bR)-5-(4-Hydroxy-phenylcarbamoyloxymethyl)-2-trifluoroacetyl-1-oxo-1a,2,3,3a,4,6b-hexahydro-1H-2,6a-diazacyclobut[cd]indene-6-carboxylic acid sodium salt] | 0.5 µg/mL | 1 µg/mL |
| CC(=O)N1C[C@H]2CC(COC(=O)NCC(F)(F)F)=C(C(=O)O)N3C(=O)[C@@H]1[C@@H]23 [92(a), (1aS,3aR,6bR)-2-Acetyl-1-oxo-5-(2,2,2-trifluoroethylcarbamoyloxymethyl)-1a,2,3,3a,4,6b-hexahydro-1H-2,6a-diazacyclobut[cd]indene-6-carboxylic acid sodium salt] | 4 µg/mL | 2 µg/mL |
| O=C(NCC(F)(F)F)OCC1=C(C(=O)O)N2C(=O)[C@@H]3[C@H]2[C@H](C1)CN3C(=O)C(F)(F)F [92(b), (1aS,3aR,6bR)-1-Oxo-2-trifluoroacetyl-5-(2,2,2-trifluoroethylcarbamoyloxymethy)-1a,2,3,3a,4,6b-hexahydro-1H-2,6a-diazacyclobut[cd]indene-6-carboxylicacid sodium salt] | 4 µg/mL | 2 µg/mL |
| CC(=O)N1C[C@H]2CC(COC(=O)NC3CC3)=C(C(=O)O)N3C(=O)[C@@H]1[C@@H]23 [94(a), (1aS,3aR,6bR)-2-Acetyl-5-cyclopropylcarbamoyloxymethyl-1-oxo-1a,2,3,3a,4,6b-hexahydro-1H-2,6a-diazacyclobut[cd]indene-6-carboxylic acid sodium salt] | 2 µg/mL | 2 µg/mL |
| O=C(NC1CC1)OCC1=C(C(=O)O)N2C(=O)[C@@H]3[C@H]2[C@H](C1)CN3C(=O)C(F)(F)F [94(b), (1aS,3aR,6bR)-5-Cyclopropylcarbamoyloxymethyl-1-oxo-2-trifluoroacetyl-1a,2,3,3a,4,6b-hexahydro-1H-2,6 a-diazacyclobut[cd]indene-6-carboxylic acid sodium salt] | 2 µg/mL | 1 µg/mL |
| CC(=O)N1C[C@H]2CC(COC(=O)NCC(N)=O)=C(C(=O)O)N3C(=O)[C@@H]1[C@@H]23 [96(a), (1aS,3aR,6bR)-2-Acetyl-5-carbamoylmethylcarbamoyloxymethyl-1-oxo-1a,2,3,3a,4,6b-hexahydro-1H-2,6a-diazacyclobut[cd]indene-6-carboxylic acid sodium salt] | 8 µg/mL | 2 µg/mL |
| NC(=O)CNC(=O)OCC1=C(C(=O)O)N2C(=O)[C@@H]3[C@H]2[C@H](C1)CN3C(=O)C(F)(F)F [96(b), (1aS,3aR,6bR) 5-Carbamoylmethylcarbamoyloxymethyl-1-oxo-2-trifluoroacetyl-1a,2,3,3a,4,6b-hexahydro-1H-2,6a-diazacyclobut[cd]indene-6-carboxylic acid sodium salt] | 2 µg/mL | 0.5 µg/mL |
| CNC(=O)OCC1=C(C(=O)O)N2C(=O)[C@@H]3[C@H]2[C@H](C1)CN3C(C)=O [98(a), (1aS,3aR,6bR)-2-Acetyl-5-methylcarbamoyloxymethyl-1-oxo-1a,2,3,3a,4,6b-hexahydro-1H-2,6a-diazacyclobut[cd]indene-6-carboxylic acid sodium salt] | 2 µg/mL | 1 µg/mL |
| CNC(=O)OCC1=C(C(=O)O)N2C(=O)[C@@H]3[C@H]2[C@H](C1)CN3C(=O)C(F)(F)F [98(b), (1aS,3aR,6bR)-5-Methylcarbamoyloxymethyl-1-oxo-2-trifluoroacetyl-1a,2,3,3a,4,6b-hexahydro-1H-2,6a-diazacyclobut[cd]indene-6-carboxylic acid sodium salt] | 2 µg/mL | 1 µg/mL |
| CC(=O)N1C[C@H]2CC(COC(=O)NCc3ccncc3)=C(C(=O)O)N3C(=O)[C@@H]1[C@@H]23 [100(a), (1aS,3aR,6bR)-2-Acetyl-1-oxo-5-(pyridin-4-ylmethylcarbamoyloxymethyl)-1a,2,3,3a,4,6b-hexahydro-1H-2,6a-diazacyclobut[cd]indene-6-carboxylic acid sodium salt] | 1 µg/mL | 1 µg/mL |
| O=C(NCc1ccncc1)OCC1=C(C(=O)O)N2C(=O)[C@@H]3[C@H]2[C@H](C1)CN3C(=O)C(F)(F)F [100(b), (1aS,3aR,6bR)-1-Oxo-5-(pyridin-4-ylmethylcarbamoyloxymethyl)-2-trifluoroacetyl-1a,2,3,3a,4,6b-hexahydro-1H-2,6a-diazacyclobut[cd]indene-6-carboxylic acid sodium salt] | 2 µg/mL | 1 µg/mL |
| N[C@@H](C(=O)N1C[C@H]2CC(COC(=O)NCc3ccncc3)=C(C(=O)O)N3C(=O)[C@@H]1[C@@H]23)c1ccccc1 [100(d), (1aS,3aR,6bR)-2-[(R)-2-phenyl-glycyl]-1-oxo-5-(pyridin-4-ylmethylcarbamoyloxymethyl)-1a,2,3,3a,4,6b-hexahydro-1H-2,6a-diazacyclobut[cd]indene-6-carboxylic acid hydrochloride] | 0.5 µg/mL | 2 µg/mL |
| CC(=O)N1C[C@H]2CC(COC(=O)NCc3ccc(O)cc3)=C(C(=O)O)N3C(=O)[C@@H]1[C@@H]23 [102(a), (1aS,3aR,6bR)-2-Acetyl-5-[(4-hydroxy-benzyl)-carbamoyloxymethyl]-1-oxo-1a,2,3,3a,4,6b-hexahydro-1H-2,6a-diazacyclobut[cd]indene-6-carboxylic acid sodium salt] | 0.5 µg/mL | 2 µg/mL |
| O=C(NCc1ccc(O)cc1)OCC1=C(C(=O)O)N2C(=O)[C@@H]3[C@H]2[C@H](C1)CN3C(=O)C(F)(F)F [102(b), (1aS,3aR,6bR)-5-[(4-Hydroxy-benzyl)-carbamoyloxymethyl]-2-trifluoroacetyl-1-oxo-1a,2,3,3a,4,6b-hexahydro-1H-2,6a-diazacyclobut[cd]indene-6-carboxylicacid sodium salt] | 1 µg/mL | 2 µg/mL |
